Experimental data: paper PMC8617627, “Novel DYRK1A Inhibitor Rescues Learning and Memory Deficits in a Mouse Model of Down Syndrome” (Pharmaceuticals, 2021)
Where two headings read alike, the source gives them in different places.

Assays:
Assay in all cases: Kinase profile (33P ATP filter binding)
Format in all cases: biochemical
Conditions in all cases: read-out: Remaining protein kinase activity
HER4 = HER4 (Homo sapiens, UniProt Q15303)
SIK2 = SIK2 (Homo sapiens, UniProt Q9H0K1)
BRSK2 = target: T1, BRSK2 (Homo sapiens, UniProt Q8IWQ3)
T1 sequence (Q8IWQ3 1-736): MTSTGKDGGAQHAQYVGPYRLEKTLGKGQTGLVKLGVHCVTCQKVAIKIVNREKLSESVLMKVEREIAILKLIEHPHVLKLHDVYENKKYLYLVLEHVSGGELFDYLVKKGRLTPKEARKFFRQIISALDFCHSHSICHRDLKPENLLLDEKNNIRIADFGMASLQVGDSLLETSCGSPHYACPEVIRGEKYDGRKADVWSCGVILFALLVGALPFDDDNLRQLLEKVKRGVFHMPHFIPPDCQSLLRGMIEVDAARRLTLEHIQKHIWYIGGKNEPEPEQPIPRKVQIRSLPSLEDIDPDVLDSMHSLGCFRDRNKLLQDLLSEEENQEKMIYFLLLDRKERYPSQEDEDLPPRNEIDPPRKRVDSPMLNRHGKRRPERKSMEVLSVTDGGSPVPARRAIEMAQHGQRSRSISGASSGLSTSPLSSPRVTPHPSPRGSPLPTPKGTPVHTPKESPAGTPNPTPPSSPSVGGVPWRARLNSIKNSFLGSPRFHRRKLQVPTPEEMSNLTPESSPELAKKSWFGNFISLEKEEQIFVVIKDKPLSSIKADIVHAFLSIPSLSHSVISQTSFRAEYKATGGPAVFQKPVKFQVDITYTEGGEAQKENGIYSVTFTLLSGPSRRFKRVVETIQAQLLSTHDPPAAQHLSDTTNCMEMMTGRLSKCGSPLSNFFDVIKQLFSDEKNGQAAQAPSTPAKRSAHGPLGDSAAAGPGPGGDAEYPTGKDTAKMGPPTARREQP

MPSK1 = MPSK1 (Homo sapiens, UniProt O75716)
MST2 = target: T2, MST2 (Homo sapiens, UniProt Q13188)
T2 sequence (Q13188 1-491): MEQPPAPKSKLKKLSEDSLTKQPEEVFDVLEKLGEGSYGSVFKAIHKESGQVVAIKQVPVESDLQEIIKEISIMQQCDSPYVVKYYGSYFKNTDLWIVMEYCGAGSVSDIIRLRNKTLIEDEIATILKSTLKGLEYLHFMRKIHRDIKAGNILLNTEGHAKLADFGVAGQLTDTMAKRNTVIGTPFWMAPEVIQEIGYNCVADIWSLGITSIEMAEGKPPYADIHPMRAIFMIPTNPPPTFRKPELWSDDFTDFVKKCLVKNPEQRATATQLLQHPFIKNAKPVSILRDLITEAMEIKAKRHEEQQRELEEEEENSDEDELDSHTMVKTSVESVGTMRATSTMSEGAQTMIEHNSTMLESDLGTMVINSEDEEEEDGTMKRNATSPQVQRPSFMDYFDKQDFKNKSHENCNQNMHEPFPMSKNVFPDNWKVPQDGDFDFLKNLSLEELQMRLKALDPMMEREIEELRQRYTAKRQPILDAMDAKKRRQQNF

EPH-A4 = EPH-A4 (Homo sapiens, UniProt P54764)
TLK1 = target: T3, TLK1 (Homo sapiens, UniProt Q9UKI8)
T3 sequence (Q9UKI8 1-766): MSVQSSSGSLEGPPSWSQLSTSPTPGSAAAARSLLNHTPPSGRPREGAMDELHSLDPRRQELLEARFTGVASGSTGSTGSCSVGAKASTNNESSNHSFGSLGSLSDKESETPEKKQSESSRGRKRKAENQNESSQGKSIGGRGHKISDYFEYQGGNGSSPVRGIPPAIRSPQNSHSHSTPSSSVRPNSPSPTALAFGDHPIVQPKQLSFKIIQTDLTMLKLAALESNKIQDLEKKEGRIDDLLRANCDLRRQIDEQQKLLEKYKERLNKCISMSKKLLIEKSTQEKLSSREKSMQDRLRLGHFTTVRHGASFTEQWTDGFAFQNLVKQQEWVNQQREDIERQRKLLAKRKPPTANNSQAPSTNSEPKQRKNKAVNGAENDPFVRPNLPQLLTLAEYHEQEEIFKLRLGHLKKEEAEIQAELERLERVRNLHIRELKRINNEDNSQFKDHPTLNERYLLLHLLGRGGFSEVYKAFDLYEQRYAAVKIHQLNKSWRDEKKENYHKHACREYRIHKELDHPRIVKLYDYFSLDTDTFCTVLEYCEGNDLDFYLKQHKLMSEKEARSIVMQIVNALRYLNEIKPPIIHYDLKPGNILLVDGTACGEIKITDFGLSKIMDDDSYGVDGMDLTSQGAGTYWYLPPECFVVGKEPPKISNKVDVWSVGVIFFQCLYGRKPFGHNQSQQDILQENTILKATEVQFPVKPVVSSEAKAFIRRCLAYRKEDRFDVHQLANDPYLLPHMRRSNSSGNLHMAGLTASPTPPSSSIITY

ABL = ABL (Homo sapiens, UniProt P00519)
PKCγ = PKCγ (Homo sapiens, UniProt P05129)

HER4, sequence (Q15303 26-1308): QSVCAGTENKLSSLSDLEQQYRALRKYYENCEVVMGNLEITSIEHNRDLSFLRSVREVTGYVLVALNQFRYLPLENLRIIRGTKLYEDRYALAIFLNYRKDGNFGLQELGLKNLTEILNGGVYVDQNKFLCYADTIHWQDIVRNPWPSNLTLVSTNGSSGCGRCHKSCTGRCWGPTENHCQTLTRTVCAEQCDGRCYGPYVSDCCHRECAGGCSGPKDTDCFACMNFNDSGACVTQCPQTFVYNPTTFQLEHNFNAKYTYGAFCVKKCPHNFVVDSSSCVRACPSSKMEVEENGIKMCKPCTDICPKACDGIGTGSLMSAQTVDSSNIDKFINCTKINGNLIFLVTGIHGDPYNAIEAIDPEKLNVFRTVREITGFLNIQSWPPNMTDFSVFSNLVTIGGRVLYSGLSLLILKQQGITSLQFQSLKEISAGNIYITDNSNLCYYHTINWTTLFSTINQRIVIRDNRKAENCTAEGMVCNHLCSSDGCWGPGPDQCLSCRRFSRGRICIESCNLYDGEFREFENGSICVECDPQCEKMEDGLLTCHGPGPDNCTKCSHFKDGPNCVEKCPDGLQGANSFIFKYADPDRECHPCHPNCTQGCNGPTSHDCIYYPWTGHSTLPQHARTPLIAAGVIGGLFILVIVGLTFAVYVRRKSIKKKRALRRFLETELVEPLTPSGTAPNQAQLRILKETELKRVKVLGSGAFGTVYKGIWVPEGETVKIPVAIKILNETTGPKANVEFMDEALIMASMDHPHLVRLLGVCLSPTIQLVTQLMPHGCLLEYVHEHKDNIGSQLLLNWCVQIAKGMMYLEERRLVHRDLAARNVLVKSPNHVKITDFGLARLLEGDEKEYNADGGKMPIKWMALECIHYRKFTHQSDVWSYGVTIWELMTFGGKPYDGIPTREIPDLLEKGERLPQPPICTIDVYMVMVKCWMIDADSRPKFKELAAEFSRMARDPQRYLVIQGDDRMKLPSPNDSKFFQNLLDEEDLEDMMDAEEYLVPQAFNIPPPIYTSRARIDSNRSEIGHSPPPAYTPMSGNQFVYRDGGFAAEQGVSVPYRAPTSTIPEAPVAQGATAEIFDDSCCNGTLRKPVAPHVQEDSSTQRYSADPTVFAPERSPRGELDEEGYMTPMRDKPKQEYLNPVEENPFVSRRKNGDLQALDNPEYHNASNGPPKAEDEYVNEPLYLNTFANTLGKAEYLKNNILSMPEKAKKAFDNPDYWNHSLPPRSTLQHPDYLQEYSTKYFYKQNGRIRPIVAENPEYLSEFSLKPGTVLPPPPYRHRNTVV
ABL, sequence (P00519 whole entry): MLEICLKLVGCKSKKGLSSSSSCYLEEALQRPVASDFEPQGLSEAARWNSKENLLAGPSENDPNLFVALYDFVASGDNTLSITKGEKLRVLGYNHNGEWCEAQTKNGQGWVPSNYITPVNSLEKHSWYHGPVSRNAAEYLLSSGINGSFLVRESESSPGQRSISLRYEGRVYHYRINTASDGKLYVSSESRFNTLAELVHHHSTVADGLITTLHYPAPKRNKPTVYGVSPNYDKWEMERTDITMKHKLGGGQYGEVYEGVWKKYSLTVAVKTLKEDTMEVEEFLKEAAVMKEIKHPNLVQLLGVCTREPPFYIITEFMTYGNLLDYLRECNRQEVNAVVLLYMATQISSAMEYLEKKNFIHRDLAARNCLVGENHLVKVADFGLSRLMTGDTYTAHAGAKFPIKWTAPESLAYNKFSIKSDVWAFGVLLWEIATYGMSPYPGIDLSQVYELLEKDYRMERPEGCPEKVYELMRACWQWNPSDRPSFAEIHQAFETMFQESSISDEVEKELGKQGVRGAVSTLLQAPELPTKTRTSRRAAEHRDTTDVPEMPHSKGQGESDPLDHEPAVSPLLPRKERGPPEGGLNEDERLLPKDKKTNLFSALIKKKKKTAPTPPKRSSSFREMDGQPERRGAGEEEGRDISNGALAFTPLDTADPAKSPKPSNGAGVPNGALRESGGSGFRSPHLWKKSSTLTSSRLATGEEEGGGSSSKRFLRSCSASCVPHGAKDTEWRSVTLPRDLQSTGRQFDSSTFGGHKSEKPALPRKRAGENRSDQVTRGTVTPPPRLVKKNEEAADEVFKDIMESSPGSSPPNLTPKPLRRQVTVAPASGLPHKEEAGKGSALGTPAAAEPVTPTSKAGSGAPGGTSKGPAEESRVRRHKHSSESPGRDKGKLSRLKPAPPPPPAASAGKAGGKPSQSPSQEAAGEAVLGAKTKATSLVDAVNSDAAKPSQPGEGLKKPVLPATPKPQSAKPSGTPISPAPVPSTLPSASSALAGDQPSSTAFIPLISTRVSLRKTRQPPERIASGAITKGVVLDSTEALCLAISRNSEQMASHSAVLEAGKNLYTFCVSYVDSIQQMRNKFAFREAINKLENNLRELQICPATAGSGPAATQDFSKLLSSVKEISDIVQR
MPSK1, sequence (O75716 whole entry): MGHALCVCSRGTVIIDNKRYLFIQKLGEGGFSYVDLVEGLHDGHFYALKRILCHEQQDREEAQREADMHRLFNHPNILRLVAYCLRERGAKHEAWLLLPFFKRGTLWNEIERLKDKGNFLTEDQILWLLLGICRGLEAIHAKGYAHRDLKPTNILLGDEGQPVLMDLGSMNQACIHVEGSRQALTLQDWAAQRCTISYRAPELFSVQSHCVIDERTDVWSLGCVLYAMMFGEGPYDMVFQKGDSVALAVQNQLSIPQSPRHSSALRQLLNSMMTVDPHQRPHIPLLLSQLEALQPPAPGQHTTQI
SIK2, sequence (Q9H0K1 whole entry): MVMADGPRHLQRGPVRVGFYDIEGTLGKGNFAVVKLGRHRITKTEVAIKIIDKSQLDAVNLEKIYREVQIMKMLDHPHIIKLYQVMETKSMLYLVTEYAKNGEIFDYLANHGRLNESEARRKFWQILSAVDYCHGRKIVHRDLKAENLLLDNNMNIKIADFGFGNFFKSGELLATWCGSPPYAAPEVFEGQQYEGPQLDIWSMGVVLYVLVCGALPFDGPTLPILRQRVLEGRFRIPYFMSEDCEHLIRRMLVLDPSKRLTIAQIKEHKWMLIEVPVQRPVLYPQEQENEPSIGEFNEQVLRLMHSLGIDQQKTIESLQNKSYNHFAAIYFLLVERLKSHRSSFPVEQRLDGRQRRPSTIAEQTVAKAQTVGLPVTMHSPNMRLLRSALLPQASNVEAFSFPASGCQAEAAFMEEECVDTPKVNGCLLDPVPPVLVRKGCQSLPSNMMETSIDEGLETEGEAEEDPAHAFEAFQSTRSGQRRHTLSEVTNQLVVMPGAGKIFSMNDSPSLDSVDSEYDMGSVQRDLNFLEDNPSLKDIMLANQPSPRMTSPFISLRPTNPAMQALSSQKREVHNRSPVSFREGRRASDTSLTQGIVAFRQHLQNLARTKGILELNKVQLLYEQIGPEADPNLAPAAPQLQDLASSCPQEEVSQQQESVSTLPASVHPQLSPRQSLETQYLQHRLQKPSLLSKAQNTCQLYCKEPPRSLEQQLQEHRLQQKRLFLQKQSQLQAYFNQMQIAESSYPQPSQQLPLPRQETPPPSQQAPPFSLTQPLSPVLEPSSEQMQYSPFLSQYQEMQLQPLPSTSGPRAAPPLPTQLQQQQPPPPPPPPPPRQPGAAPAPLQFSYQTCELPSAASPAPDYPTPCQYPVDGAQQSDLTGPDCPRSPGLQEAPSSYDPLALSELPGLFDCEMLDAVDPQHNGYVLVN

Structure (SMILES): COc1ccc2sc(-c3cncc(NC(C)=O)c3)nc2c1 [PST-001, N-(5-(5-Methoxybenzo[d]thiazol-2-yl)pyridin-3-yl)acetamide]
- remaining activity at 1 µM (HER4): 103%
- remaining activity at 100 µM (HER4): 94%
- remaining activity at 1 µM (SIK2): 112%
- remaining activity at 100 µM (SIK2): 65%
- remaining activity at 1 µM (BRSK2): 128%
- remaining activity at 100 µM (BRSK2): 125%
- remaining activity at 1 µM (MPSK1): 121%
- remaining activity at 100 µM (MPSK1): 113%
- remaining activity at 1 µM (MST2): 120%
- remaining activity at 100 µM (MST2): 54%
- remaining activity at 1 µM (EPH-A4): 117%
- remaining activity at 100 µM (EPH-A4): 106%
- remaining activity at 1 µM (TLK1): 129%
- remaining activity at 100 µM (TLK1): 134%
- remaining activity at 1 µM (ABL): 97%
- remaining activity at 100 µM (ABL): 99%
- remaining activity at 1 µM (PKCγ): 125%
- remaining activity at 100 µM (PKCγ): 124%

Structure (SMILES): COc1ccc2sc(-c3cncc(N)c3)nc2c1 [compound 1, 5-(5-Methoxybenzo[d]thiazol-2-yl)pyridin-3-amine]
- remaining activity at 1 µM (HER4; HER4, 1 μM): 104%
- remaining activity at 100 µM (HER4; HER4, 100 μM): 16%
- remaining activity at 1 µM (SIK2; SIK2, 1 μM): 102%
- remaining activity at 100 µM (SIK2; SIK2, 100 μM): 10%
- remaining activity at 1 µM (BRSK2; BRSK2, 1 μM): 125%
- remaining activity at 100 µM (BRSK2; BRSK2, 100 μM): 53%
- remaining activity at 1 µM (MPSK1; MPSK1, 1 μM): 110%
- remaining activity at 100 µM (MPSK1; MPSK1, 100 μM): 106%
- remaining activity at 1 µM (MST2; MST2, 1 μM): 124%
- remaining activity at 100 µM (MST2; MST2, 100 μM): 32%
- remaining activity at 1 µM (EPH-A4; EPH-A4, 1 μM): 89%
- remaining activity at 100 µM (EPH-A4; EPH-A4, 100 μM): 85%
- remaining activity at 1 µM (TLK1; TLK1, 1 μM): 131%
- remaining activity at 100 µM (TLK1; TLK1, 100 μM): 115%
- remaining activity at 1 µM (ABL; ABL, 1 μM): 108%
- remaining activity at 100 µM (ABL; ABL, 100 μM): 46%
- remaining activity at 1 µM (PKCγ; PKCγ, 1 μM): 115%
- remaining activity at 100 µM (PKCγ; PKCγ, 100 μM): 61%
